Source: article PMC10838953

Key:
Assay in all cases: biochemical
Settings in all cases: read-out: %Ctrl @ 2000nM
[1] = biological target: ABL1(F317I)-phosphorylated (Homo sapiens, UniProt P00519, F317I)
[2] = biological target: ABL1(H396P)-phosphorylated (Homo sapiens, UniProt P00519, H396P)
AKT2 = AKT2 (Homo sapiens, UniProt P31751)
ASK1 = ASK1 (Homo sapiens, UniProt Q99683)
BMPR2 = BMPR2 (Homo sapiens, UniProt Q13873)
BRSK2 = BRSK2 (Homo sapiens, UniProt Q8IWQ3)
CDK2 = CDK2 (Homo sapiens, UniProt P24941)
CDK4 = CDK4 (Homo sapiens, UniProt P11802)
CDK4, sequence (P11802 whole entry): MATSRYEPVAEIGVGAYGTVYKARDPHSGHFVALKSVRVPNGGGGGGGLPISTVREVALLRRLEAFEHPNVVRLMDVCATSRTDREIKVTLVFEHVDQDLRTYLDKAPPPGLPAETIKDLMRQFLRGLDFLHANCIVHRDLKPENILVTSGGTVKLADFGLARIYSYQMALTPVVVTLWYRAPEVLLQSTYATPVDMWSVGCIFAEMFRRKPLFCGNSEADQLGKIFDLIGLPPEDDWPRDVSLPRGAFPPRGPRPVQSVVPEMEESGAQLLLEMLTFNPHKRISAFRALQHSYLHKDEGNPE

CDK5 = CDK5 (Homo sapiens, UniProt Q00535)
CDK7 = CDK7 (Homo sapiens, UniProt P50613)
CHEK1 = CHEK1 (Homo sapiens, UniProt O14757)
CSNK1A1L = CSNK1A1L (Homo sapiens, UniProt Q8N752)
CSNK1D = CSNK1D (Homo sapiens, UniProt P48730)
CSNK1G2 = CSNK1G2 (Homo sapiens, UniProt P78368)
DAPK2 = DAPK2 (Homo sapiens, UniProt Q9UIK4)
DDR1 = DDR1 (Homo sapiens, UniProt Q08345)
EGFR(E746-A750del) = EGFR(E746-A750del) (Homo sapiens, UniProt P00533, DEL746-750)
EGFR(L747-T751del,Sins) = EGFR(L747-T751del,Sins) (Homo sapiens, UniProt P00533, DEL747-750/T751S)
EGFR(L747-T751del,Sins), sequence (P00533 with tags, fused parts or gaps DEL747-750/T751S): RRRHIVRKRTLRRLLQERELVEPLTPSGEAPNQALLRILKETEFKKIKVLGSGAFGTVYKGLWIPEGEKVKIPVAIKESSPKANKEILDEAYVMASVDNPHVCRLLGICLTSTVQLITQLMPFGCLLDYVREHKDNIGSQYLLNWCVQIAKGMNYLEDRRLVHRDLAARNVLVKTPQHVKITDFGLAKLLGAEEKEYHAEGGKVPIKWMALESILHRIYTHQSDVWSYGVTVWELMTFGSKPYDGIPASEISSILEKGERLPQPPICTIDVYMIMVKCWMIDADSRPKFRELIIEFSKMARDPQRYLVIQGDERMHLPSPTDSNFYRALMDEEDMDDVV

EIF2AK1 = EIF2AK1 (Homo sapiens, UniProt Q9BQI3)
EPHA8 = EPHA8 (Homo sapiens, UniProt P29322)
FYN = FYN (Homo sapiens, UniProt P06241)
HIPK4 = HIPK4 (Homo sapiens, UniProt Q8NE63)
[3] = biological target: JAK2(JH1domain-catalytic) (Homo sapiens, UniProt O60674)
[4] = biological target: JAK3(JH1domain-catalytic) (Homo sapiens, UniProt P52333)
JAK3(JH1domain-catalytic), sequence (P52333 813-1124 limits assumed): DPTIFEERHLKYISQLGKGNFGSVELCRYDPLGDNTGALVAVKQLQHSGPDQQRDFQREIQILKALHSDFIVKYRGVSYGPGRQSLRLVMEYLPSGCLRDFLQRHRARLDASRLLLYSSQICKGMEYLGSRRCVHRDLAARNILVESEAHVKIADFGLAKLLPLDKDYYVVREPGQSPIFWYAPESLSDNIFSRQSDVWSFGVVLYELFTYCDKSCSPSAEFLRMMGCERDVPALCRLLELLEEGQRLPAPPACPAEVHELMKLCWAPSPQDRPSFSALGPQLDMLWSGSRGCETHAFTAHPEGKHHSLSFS

JNK1 = JNK1 (Homo sapiens, UniProt P45983)
KIT(D816V) = KIT(D816V) (Homo sapiens, UniProt P10721, D816V)
KIT-autoinhibited = KIT-autoinhibited (Homo sapiens, UniProt P10721)
MAP3K1 = MAP3K1 (Homo sapiens, UniProt Q13233)
MAP3K1, sequence (Q13233 whole entry): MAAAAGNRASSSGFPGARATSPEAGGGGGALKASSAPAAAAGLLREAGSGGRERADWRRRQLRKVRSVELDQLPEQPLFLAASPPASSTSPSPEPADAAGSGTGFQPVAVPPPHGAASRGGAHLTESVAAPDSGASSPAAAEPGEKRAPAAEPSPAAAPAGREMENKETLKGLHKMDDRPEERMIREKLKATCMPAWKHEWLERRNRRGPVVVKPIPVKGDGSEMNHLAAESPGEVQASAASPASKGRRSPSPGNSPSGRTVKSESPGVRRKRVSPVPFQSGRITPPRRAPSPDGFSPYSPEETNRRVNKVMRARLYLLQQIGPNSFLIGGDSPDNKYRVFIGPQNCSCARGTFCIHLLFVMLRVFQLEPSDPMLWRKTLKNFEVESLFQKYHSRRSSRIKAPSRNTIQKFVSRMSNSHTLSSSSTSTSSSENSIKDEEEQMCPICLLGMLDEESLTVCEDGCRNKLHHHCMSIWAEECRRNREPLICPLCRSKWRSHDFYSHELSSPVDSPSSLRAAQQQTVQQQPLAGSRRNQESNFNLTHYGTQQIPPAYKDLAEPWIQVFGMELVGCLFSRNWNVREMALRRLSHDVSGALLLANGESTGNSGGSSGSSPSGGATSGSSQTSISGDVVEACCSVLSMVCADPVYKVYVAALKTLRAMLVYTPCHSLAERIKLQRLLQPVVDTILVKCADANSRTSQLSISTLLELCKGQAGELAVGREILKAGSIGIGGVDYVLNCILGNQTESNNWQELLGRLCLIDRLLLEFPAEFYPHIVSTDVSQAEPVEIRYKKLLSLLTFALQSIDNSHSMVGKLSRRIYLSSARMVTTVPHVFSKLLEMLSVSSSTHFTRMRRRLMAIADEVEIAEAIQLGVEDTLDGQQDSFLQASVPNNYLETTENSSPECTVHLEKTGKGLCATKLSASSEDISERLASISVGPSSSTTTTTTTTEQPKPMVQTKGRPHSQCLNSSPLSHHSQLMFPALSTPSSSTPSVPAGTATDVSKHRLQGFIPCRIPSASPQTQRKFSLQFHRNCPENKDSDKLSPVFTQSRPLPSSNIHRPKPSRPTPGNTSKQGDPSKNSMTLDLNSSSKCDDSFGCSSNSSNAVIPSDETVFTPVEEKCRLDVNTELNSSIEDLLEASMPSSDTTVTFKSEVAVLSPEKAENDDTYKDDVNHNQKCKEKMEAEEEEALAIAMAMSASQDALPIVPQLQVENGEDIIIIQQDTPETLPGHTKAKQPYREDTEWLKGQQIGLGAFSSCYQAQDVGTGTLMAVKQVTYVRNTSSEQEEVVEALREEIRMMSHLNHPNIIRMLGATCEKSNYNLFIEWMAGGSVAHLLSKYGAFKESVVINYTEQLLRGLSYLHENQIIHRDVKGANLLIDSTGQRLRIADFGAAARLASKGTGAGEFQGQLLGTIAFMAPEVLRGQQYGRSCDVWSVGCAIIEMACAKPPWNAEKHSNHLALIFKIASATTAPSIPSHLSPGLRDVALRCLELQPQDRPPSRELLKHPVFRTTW

MEK5 = MEK5 (Homo sapiens, UniProt Q13163)
MST4 = MST4 (Homo sapiens, UniProt Q9P289)
MYLK2 = MYLK2 (Homo sapiens, UniProt Q9H1R3)
MYLK2, sequence (Q9H1R3 whole entry): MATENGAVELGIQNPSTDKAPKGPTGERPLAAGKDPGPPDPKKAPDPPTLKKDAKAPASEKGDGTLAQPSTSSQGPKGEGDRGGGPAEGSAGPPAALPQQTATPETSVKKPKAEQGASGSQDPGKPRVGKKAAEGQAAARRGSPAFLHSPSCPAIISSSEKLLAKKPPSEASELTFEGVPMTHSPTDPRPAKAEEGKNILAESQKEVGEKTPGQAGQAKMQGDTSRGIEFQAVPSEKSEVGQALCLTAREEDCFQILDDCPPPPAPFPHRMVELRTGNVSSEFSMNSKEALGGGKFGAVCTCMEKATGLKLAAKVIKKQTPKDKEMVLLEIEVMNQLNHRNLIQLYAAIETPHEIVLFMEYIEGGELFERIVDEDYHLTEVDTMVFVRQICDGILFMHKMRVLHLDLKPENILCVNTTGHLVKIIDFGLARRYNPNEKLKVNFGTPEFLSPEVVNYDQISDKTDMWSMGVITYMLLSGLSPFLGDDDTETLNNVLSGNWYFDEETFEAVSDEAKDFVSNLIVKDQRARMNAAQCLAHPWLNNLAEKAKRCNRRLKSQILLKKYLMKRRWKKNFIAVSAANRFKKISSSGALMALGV

OSR1 = OSR1 (Homo sapiens, UniProt O95747)
PAK7 = PAK7 (Homo sapiens, UniProt Q9P286)
PCTK2 = PCTK2 (Homo sapiens, UniProt Q00537)
PIK3CA(H1047L) = PIK3CA(H1047L) (Homo sapiens, UniProt P42336, H1047L)
PIK3CA(H1047Y) = PIK3CA(H1047Y) (Homo sapiens, UniProt P42336, H1047Y)
PLK1 = PLK1 (Homo sapiens, UniProt P53350)
PLK1, sequence (P53350 whole entry): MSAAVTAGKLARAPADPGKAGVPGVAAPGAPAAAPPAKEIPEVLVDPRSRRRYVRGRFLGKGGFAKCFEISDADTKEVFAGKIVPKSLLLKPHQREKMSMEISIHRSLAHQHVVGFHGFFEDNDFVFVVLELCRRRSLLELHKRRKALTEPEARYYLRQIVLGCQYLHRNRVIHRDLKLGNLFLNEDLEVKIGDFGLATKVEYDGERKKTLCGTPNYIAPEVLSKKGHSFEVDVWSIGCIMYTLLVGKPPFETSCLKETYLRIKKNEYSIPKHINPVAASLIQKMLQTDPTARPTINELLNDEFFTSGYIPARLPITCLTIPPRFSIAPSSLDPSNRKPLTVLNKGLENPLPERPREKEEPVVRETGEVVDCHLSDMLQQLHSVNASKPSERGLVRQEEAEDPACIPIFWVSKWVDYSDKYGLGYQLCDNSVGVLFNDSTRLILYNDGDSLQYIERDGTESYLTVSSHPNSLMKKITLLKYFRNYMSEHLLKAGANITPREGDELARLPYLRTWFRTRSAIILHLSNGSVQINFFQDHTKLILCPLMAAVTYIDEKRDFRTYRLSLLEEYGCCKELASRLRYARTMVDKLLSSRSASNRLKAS

RET(M918T) = RET(M918T) (Homo sapiens, UniProt P07949, M918T)
[5] = biological target: RSK4(Kin.Dom.1-N-terminal) (Homo sapiens, UniProt Q9UK32)
SNRK = SNRK (Homo sapiens, UniProt Q9NRH2)
TXK = TXK (Homo sapiens, UniProt P42681)
YSK4 = YSK4 (Homo sapiens, UniProt Q56UN5)

ASK1, sequence (Q99683 whole entry): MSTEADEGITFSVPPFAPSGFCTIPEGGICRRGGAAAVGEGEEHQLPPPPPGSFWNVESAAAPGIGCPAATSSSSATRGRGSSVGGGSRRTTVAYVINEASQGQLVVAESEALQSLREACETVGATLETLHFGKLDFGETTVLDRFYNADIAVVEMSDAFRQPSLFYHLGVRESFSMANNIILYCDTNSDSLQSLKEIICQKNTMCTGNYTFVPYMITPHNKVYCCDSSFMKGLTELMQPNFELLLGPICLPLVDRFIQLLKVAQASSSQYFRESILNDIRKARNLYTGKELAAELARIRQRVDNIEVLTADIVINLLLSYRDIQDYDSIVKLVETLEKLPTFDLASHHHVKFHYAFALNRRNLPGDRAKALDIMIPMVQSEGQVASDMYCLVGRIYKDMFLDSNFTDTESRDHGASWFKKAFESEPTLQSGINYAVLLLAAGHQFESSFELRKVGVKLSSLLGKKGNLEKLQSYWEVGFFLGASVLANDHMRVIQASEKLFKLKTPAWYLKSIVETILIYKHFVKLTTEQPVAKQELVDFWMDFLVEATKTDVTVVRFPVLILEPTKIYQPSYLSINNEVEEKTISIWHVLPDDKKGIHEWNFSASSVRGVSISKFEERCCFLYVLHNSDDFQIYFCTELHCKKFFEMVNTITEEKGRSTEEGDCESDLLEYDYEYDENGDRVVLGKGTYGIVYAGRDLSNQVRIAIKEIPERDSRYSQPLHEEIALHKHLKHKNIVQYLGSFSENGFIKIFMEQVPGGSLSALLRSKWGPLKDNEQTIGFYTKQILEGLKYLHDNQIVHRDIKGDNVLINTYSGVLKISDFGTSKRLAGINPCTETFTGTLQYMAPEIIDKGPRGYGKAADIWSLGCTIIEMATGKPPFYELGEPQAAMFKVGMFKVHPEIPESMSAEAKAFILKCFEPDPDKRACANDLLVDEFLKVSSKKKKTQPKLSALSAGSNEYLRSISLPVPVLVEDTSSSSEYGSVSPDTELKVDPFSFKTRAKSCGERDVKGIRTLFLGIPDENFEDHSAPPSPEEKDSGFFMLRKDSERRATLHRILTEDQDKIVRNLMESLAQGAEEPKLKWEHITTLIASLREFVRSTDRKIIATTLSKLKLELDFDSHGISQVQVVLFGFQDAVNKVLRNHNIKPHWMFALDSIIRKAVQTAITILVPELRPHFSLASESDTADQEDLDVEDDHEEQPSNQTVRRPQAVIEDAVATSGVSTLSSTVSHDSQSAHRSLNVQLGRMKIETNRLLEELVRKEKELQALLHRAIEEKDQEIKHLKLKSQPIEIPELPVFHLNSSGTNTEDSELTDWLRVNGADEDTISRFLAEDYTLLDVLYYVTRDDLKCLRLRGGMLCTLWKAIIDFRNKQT

## CC(C)COC(=O)c1[nH]c2ccc(F)cc2c1-c1cn(CC2CCN(CCNS(=O)(=O)c3ccc(CC(C)C)cc3)CC2)nn1 [AB668, isobutyl 5-fluoro-3-(1-((1-(2-((4-isobutylphenyl)sulfonamido)ethyl)piperidin-4-yl)methyl)-1H-1,2,3-triazol-4-yl)-1H-indole-2-carboxylate]
[1]
  remaining activity at 2 µM: 96%
[2]
  remaining activity at 2 µM: 80%
AKT2
  remaining activity at 2 µM: 97%
ASK1
  remaining activity at 2 µM: 100%
BMPR2
  remaining activity at 2 µM: 100%
BRSK2
  remaining activity at 2 µM: 79%
CDK2
  remaining activity at 2 µM: 90%
CDK4
  remaining activity at 2 µM: 100%
CDK5
  remaining activity at 2 µM: 99%
CDK7
  remaining activity at 2 µM: 98%
CHEK1
  remaining activity at 2 µM: 95%
CSNK1A1L
  remaining activity at 2 µM: 86%
CSNK1D
  remaining activity at 2 µM: 89%
CSNK1G2
  remaining activity at 2 µM: 75%
DAPK2
  remaining activity at 2 µM: 71%
DDR1
  remaining activity at 2 µM: 96%
EGFR(E746-A750del)
  remaining activity at 2 µM: 88%
EGFR(L747-T751del,Sins)
  remaining activity at 2 µM: 86%
EIF2AK1
  remaining activity at 2 µM: 88%
EPHA8
  remaining activity at 2 µM: 92%
FYN
  remaining activity at 2 µM: 64%
HIPK4
  remaining activity at 2 µM: 87%
[3]
  remaining activity at 2 µM: 85%
[4]
  remaining activity at 2 µM: 73%
JNK1
  remaining activity at 2 µM: 77%
KIT(D816V)
  remaining activity at 2 µM: 95%
KIT-autoinhibited
  remaining activity at 2 µM: 96%
MAP3K1
  remaining activity at 2 µM: 91%
MEK5
  remaining activity at 2 µM: 100%
MST4
  remaining activity at 2 µM: 92%
MYLK2
  remaining activity at 2 µM: 96%
OSR1
  remaining activity at 2 µM: 81%
PAK7
  remaining activity at 2 µM: 85%
PCTK2
  remaining activity at 2 µM: 96%
PIK3CA(H1047L)
  remaining activity at 2 µM: 98%
PIK3CA(H1047Y)
  remaining activity at 2 µM: 100%
PLK1
  remaining activity at 2 µM: 100%
RET(M918T)
  remaining activity at 2 µM: 94%
[5]
  remaining activity at 2 µM: 88%
SNRK
  remaining activity at 2 µM: 100%
TXK
  remaining activity at 2 µM: 92%
YSK4
  remaining activity at 2 µM: 100%
